# According to ChEMBL document CHEMBL5104198, “Probing Factor Xa Protein-Ligand Interactions: Accurate Free Energy Calculations and Experimental Validations of Two Series of High-Affinity Ligands” (J Med Chem, 2022):
# Target: T1, Coagulation factor X (Homo sapiens, UniProt P00742)
# Assay: Inhibition of human fXa at 100 uM using Cbz-D-Arg-Gly-L-Arg-pNA as substrate preincubated for 30 mins followed by substrate addition and measured after 60 mins by […] method relative to control
# Settings: time 90.0 min
# T1 sequence (P00742 41-179 limits assumed): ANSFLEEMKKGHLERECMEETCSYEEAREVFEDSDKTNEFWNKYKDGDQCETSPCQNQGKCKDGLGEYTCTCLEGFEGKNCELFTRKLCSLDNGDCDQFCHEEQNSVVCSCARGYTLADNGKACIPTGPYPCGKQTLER
# T1 sequence (P00742 235-488 limits assumed): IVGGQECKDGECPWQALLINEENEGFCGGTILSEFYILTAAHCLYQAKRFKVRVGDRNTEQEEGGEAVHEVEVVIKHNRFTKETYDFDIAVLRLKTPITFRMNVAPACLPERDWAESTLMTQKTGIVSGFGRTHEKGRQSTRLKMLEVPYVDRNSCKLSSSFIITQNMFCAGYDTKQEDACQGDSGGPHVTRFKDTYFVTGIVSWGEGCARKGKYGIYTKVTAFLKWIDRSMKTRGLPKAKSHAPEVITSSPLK
row,SMILES,inhibition [%]
1,CC(C)N1CCC(NC(=O)c2ccn(CC(=O)Nc3ccc(Cl)cc3)c2)CC1,66

# Target: T1, Coagulation factor X
# Assay: Inhibition of human fXa assessed as inhibition constant using Cbz-D-Arg-Gly-L-Arg-pNA as substrate preincubated for 30 mins followed by substrate addition and measured after 60 mins by […] method
# Settings: not given
row,Ki [nM],SMILES
1,13,C#Cc1ccc(-c2cc(Cn3c(C(=O)NC4CCN(C(C)C)CC4)cc4ccccc43)no2)s1
2,57,CC(C)N1CCC(NC(=O)c2cccn2Cc2cc(-c3ccc(Cl)s3)on2)CC1
3,188,CC(C)N1CCC(NC(=O)c2cc3ccccc3n2Cc2cc(-c3ccc(I)s3)on2)CC1
4,70,CC(C)N1CCC(NC(=O)c2cc3ccccc3n2Cc2cc(-c3ccc(F)s3)on2)CC1
5,1240,CC(C)N1CCC(NC(=O)c2ccn(Cc3cc(-c4ccc(Cl)s4)on3)c2)CC1
6,8,CC(C)N1CCC(NC(=O)c2c3ccccc3nn2Cc2cc(-c3ccc(Cl)s3)on2)CC1
7,14800,CC(C)N1CCC(NC(=O)c2cn(Cc3cc(-c4ccc(Cl)s4)on3)cn2)CC1
8,37,CC(C)N1CCC(NC(=O)c2ccn(Cc3cc(-c4ccc(Cl)s4)on3)n2)CC1
9,52,CC(C)N1CCC(NC(=O)c2ccnn2Cc2cc(-c3ccc(Cl)s3)on2)CC1
10,12,CC(C)N1CCC(NC(=O)c2cc3ccccc3n2Cc2cc(-c3ccc(Br)s3)on2)CC1
11,0.5,CC(C)N1CCC(NC(=O)c2nc3ccccc3n2Cc2cc(-c3ccc(Cl)s3)on2)CC1
12,55,Cc1ccc(-c2cc(Cn3c(C(=O)NC4CCN(C(C)C)CC4)cc4ccccc43)no2)s1
13,4,CC(C)N1CCC(NC(=O)c2cc3cccnc3n2Cc2cc(-c3ccc(Cl)s3)on2)CC1
14,162,CC(C)N1CCC(NC(=O)c2cc3ccccc3n2Cc2cc(-c3cccs3)on2)CC1
15,6,CC(C)N1CCC(NC(=O)c2nc3ccccc3n2CC(=O)Nc2ccc(Cl)cc2)CC1

# The remaining lines, values behind:
row,SMILES,Ki [nM]
1,CC(C)N1CCC(NC(=O)c2cc3ccccc3n2CC(=O)Nc2ccc(I)cc2)CC1,7
2,CC(C)N1CCC(NC(=O)c2cc3ccccc3n2CC(=O)Nc2ccc(F)cc2)CC1,63
3,CC(C)N1CCC(NC(=O)c2cc3cccnc3n2CC(=O)Nc2ccc(Cl)cc2)CC1,11
4,CC(C)N1CCC(NC(=O)c2cn(CC(=O)Nc3ccc(Cl)cc3)c3ncccc23)CC1,2930
5,CC(C)N1CCC(NC(=O)c2nn(CC(=O)Nc3ccc(Cl)cc3)c3ccccc23)CC1,1740
6,CC(C)N1CCC(NC(=O)c2cn(Cc3cc(-c4ccc(Cl)s4)on3)c3ncccc23)CC1,65
7,CC(C)N1CCC(NC(=O)c2cn(CC(=O)Nc3ccc(Cl)cc3)cn2)CC1,20500
8,CC(C)N1CCC(NC(=O)c2cn(CC(=O)Nc3ccc(Cl)cc3)c3ccccc23)CC1,5120
9,CC(C)N1CCC(NC(=O)c2cc3ccccc3n2CC(=O)Nc2ccccc2)CC1,204
10,CC(C)N1CCC(NC(=O)c2ccn(CC(=O)Nc3ccc(Cl)cc3)n2)CC1,204
11,CC(C)N1CCC(NC(=O)c2nn(Cc3cc(-c4ccc(Cl)s4)on3)c3ccccc23)CC1,9
12,CC(C)N1CCC(NC(=O)c2cn(Cc3cc(-c4ccc(Cl)s4)on3)c3ccccc23)CC1,241
13,CC(C)N1CCC(NC(=O)c2cccn2CC(=O)Nc2ccc(Cl)cc2)CC1,51
14,C#Cc1ccc(NC(=O)Cn2c(C(=O)NC3CCN(C(C)C)CC3)cc3ccccc32)cc1,49
15,Cc1ccc(NC(=O)Cn2c(C(=O)NC3CCN(C(C)C)CC3)cc3ccccc32)cc1,56
